Data reported in paper PMC4552448 (Journal of medicinal chemistry, 2015).

Legend:
Type in all cases: cell-based
[1] = system: HeLa cells; assay: NKG2D and DNAM-1 ligand surface expression, IF and flow cytometry; conditions: data not shown
[2] = system: RD rhabdomyosarcoma cells; assay: Growth inhibition, MTT, RD; conditions: Rhabdomyosarcoma cell, 48 h, read-out: IC50 ± SD RD
[3] = system: HepG2 hepatocellular carcinoma cells; assay: Growth inhibition, MTT, HepG2; conditions: Homo sapiens, HepG2, 48 h, read-out: IC50 ± SD HepG2
[4] = system: OVCAR-8 ovarian carcinoma cells; assay: Growth inhibition of OVCAR-8 cells; conditions: Homo sapiens, OVCAR-8, 96 h, read-out: IC50 ± SD OVCAR-8

SMILES | induction of the NKG2D and DNAM-1 ligands [1] | IC50 [2] | IC50 [3] | IC50 [4]
COc1cc(C(=O)c2ccn(-c3cccc(N)c3)c2)cc(OC)c1OC [(1-(3-aminophenyl)-1H-pyrrol-3-yl)(3,4,5-trimethoxyphenyl)-methanone] | unable to induce |  |  | 
CC(=O)O[C@H]1C(=O)[C@@]2(C)[C@H]([C@H](OC(=O)c3ccccc3)[C@]3(O)C[C@H](OC(=O)[C@H](O)[C@@H](NC(=O)c4ccccc4)c4ccccc4)C(C)=C1C3(C)C)[C@]1(OC(C)=O)CO[C@@H]1C[C@@H]2O [PTX, Paclitaxel] |  | > 10000 nM |  | 
CC[C@]1(O)C[C@@H]2CN(CCc3c([nH]c4ccccc34)[C@@](C(=O)OC)(c3cc4c(cc3OC)N(C)[C@H]3[C@@](O)(C(=O)OC)[C@H](OC(C)=O)[C@]5(CC)C=CCN6CC[C@]43[C@@H]65)C2)C1 [VBL, vinblastine] |  | 53 ± 2.5 nM | 81 ± 2.4 nM | 15 ± 7 nM
